The record followed here is ChEMBL document CHEMBL5352403, “Monoamine oxidase inhibitors: A concise review with special emphasis on structure activity relationship studies” (Eur J Med Chem, 2022).

For assay [1], the species on record is Homo sapiens. Briefly: Selectivity index, ratio of Ki for inhibition of human MAO-A to Ki for inhibition of human MAO-B.
Assay [2] has as its target T1, Amine oxidase [flavin-containing] B (Homo sapiens, UniProt P27338).
T1 sequence (P27338 whole entry): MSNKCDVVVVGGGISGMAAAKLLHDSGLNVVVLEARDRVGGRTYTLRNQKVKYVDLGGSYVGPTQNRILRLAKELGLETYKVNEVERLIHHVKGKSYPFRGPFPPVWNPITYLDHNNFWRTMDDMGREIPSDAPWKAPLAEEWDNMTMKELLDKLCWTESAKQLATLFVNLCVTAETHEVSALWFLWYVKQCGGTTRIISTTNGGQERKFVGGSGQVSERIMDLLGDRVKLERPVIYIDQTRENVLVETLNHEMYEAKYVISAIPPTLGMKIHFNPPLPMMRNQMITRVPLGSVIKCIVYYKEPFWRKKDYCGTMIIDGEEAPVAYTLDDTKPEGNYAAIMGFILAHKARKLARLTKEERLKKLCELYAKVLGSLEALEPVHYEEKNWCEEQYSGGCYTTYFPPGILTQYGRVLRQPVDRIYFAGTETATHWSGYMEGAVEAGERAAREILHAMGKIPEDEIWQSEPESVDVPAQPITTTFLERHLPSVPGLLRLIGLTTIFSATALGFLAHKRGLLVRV
Briefly: Inhibition of recombinant human MAO-B using p-tyramine as substrate incubated for 15 mins by Amplex Red reagent and horseradish peroxidase based fluorometric analysis.

The target in assay [3] is T1, Amine oxidase [flavin-containing] B. The assay is described as follows: Reversible inhibition of recombinant human MAO-B incubated for 30 mins by dilution assay.
The nature of assay [4]: Inhibition of goat liver MAO-B using p-tyramine as substrate incubated for 60 mins by spectrophotometric assay. It counts as tissue-based, Capra hircus.
Assay [5] deals with T1, Amine oxidase [flavin-containing] B. The assay is described as follows: Inhibition of recombinant human MAO-B expressed in baculovirus infected BTI-TN-5B1-4 insect cells using p-tyramine as substrate incubated for 15 mins by Amplex Red reagent and horseradish peroxidase based fluorometric analysis.
In assay [6] the target is T2, Amine oxidase [flavin-containing] A (Homo sapiens, UniProt P21397).
T2 sequence (P21397 whole entry): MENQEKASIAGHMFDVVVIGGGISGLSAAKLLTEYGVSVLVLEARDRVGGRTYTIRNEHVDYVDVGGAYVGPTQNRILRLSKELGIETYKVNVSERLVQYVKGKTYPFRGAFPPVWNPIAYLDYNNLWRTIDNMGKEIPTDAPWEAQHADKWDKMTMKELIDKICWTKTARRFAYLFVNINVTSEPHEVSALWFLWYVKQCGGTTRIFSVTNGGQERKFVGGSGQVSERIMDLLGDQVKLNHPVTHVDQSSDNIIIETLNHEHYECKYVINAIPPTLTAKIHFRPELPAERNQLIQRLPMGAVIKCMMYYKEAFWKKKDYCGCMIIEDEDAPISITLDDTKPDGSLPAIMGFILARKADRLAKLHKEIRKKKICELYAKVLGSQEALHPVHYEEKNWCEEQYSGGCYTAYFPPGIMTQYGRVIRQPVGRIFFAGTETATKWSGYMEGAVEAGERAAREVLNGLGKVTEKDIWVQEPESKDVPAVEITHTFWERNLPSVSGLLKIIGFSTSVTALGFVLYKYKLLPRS
Briefly: Competitive inhibition of recombinant human MAO-A using tyramine hydrochloride as substrate by Ampliflu red reagent and horseradish peroxidase based fluorescence microplate reader analysis.

Assay [7] deals with T1, Amine oxidase [flavin-containing] B. The assay is described as follows: Inhibition of recombinant human MAO-B using kynuramine as substrate incubated for 20 mins by spectramax fluorescence microplate reader analysis.
The target in assay [8] is T2, Amine oxidase [flavin-containing] A. The assay is described as follows: Inhibition of recombinant human MAO-A using p-tyramine as substrate incubated for 15 mins by Amplex Red reagent and horseradish peroxidase based fluorometric analysis.
For assay [9] the target is unchanged. The assay is described as follows: Inhibition of recombinant human MAO-A assessed as inhibition constant incubated for 60 mins by Amplex Red reagent and horseradish peroxidase based fluorometric analysis.
The species entered for assay [10] is Homo sapiens. The assay is described as follows: Selectivity index, ratio of IC50 for inhibition of recombinant human MAO-A to IC50 for inhibition of recombinant human MAO-B.
In assay [11] the target is T1, Amine oxidase [flavin-containing] B. Briefly: Inhibition of recombinant human MAO-B using kynuramine as substrate incubated for 30 mins by spectrophotometric assay.
The target is the same in assay [12]. The assay is described as follows: Inhibition of recombinant human MAO-B using kynuramine as substrate incubated for 30 mins by fluorimetric analysis.
Assay [13] concerns the target T2, Amine oxidase [flavin-containing] A. Briefly: Inhibition of recombinant human MAO-A using kynuramine as substrate incubated for 30 mins by fluorimetric analysis.
Assay [14] has as its target T1, Amine oxidase [flavin-containing] B. Briefly: Inhibition of MAO-B (unknown origin) using p-tyramine as substrate incubated for 60 mins by Ampliflu red reagent and horseradish peroxidase based fluorometric analysis.
In assay [15] the target is T2, Amine oxidase [flavin-containing] A. The assay is described as follows: Inhibition of human MAO-A.
Assay [16] has as its target T1, Amine oxidase [flavin-containing] B. The assay is described as follows: Inhibition of recombinant human MAO-B using kynuramine as substrate incubated for 20 mins by spectrophotometric assay.
Assay [17] deals with T3, Amine oxidase [flavin-containing] B (Rattus norvegicus, UniProt P19643).
T3 sequence (P19643 whole entry): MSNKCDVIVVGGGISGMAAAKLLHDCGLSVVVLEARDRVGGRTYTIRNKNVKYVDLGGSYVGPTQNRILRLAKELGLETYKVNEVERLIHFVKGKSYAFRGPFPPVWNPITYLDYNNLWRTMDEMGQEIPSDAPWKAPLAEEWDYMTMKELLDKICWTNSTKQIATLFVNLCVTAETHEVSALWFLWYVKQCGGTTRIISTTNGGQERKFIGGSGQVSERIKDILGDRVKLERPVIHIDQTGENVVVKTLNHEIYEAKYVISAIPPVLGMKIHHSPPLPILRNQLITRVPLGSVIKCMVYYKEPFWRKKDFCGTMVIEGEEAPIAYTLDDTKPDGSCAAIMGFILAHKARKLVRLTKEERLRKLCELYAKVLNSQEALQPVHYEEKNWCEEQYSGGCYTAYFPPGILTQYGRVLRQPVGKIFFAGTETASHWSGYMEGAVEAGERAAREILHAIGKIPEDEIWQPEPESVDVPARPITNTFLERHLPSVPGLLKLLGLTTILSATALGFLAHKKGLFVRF
The assay is described as follows: Inhibition of rat brain mitochondria MAO-B using p-tyramine as substrate incubated for 15 mins by Amplex Red reagent and horseradish peroxidase based fluorometric analysis.

For assay [18], the target named is T1, Amine oxidase [flavin-containing] B. Briefly: Inhibition of human MAO-B using p-tyramine as substrate incubated for 15 mins by horseradish peroxidase based fluorescence microplate reader analysis.
The target is the same in assay [19]. The assay is described as follows: Inhibition of human MAO-B using p-tyramine as substrate incubated for 10 mins by Amplex Red reagent and horseradish peroxidase based fluorescence analysis.
Assay [20] has as its target T2, Amine oxidase [flavin-containing] A. Briefly: Inhibition of recombinant human MAO-A assessed as inhibition constant by Lineweaver-Burk plot analysis.
Assay [21] concerns the target T1, Amine oxidase [flavin-containing] B. The assay is described as follows: Inhibition of recombinant human MAO-B using p-tyramine as substrate incubated for 45 mins by Amplex Red reagent and horseradish peroxidase based fluorescence microplate reader analysis.
For assay [22], the target named is T3, Amine oxidase [flavin-containing] B. The assay is described as follows: Inhibition of rat brain mitochondria MAO-B using benzylamine as substrate incubated for 30 mins by fluorescence microplate reader analysis.

Consider `NC(=S)N1N=C(c2ccco2)CC1c1ccc(F)cc1` (stereo unspecified), for which the Ratio Ki in assay [1] worked out at 0.11.
Turning to `O=C1CCc2ccc(OCc3ccccc3F)cc2O1`, the IC50 in assay [2] stood at 0.37 nM; in assay [3], 4 nM.
In assay [4], `CC1CCCCN1c1ccc(/C=N/Nc2ccccc2)cc1` (stereo unspecified) had an IC50 of 340 nM.
On to `C/N=C/c1cn(-c2ccccc2)nc1-c1ccc(F)cc1`, for which the values for the IC50 in [5] and in assay [4] were 24 nM and 340 nM, respectively.
Consider `O=[N+]([O-])c1ccc(-c2csc(N/N=C(/CSc3nc4ccccc4s3)c3ccccc3)n2)cc1`, for which, in [6], the IC50 stood at 95 nM.
`COc1ccc2oc(/C=C/c3ccc(Cl)cc3)cc(=O)c2c1`: the IC50 in assay [7] was 17 nM.
`O=c1oc2ccc(Cl)cc2c(O)c1-c1ccccc1O`: the half-inhibitory concentration (IC50) in [8] was 55.5 µM.
For the compound `C[C@H]1OC(=O)N(c2ccccc2)C1=O`, the inhibition constant (Ki) in assay [9] worked out at 160 nM.
With `O=C(c1ccccc1)N1CCN(c2ccccc2)CC1`, the Ratio IC50 in assay [10] is over 122.
With `Clc1ccc(-c2csc(N/N=C(/CSc3nc4ccccc4s3)c3ccccc3)n2)c(Cl)c1`, in assay [6], the IC50 stood at 141 nM.
Consider `OCC/N=C/c1cn(-c2ccccc2)nc1-c1ccc(F)cc1`, for which the IC50 in assay [4] stood at 380 nM.
As for `Cc1c(/N=C/c2ccc(O)cc2)c(=O)n(-c2ccccc2)n1C`, in assay [11], the IC50 was determined as 10 nM.
Take `O=C(CSc1nc2cc(Cl)ccc2s1)N(Cc1cccc([N+](=O)[O-])c1)c1ccc(F)cc1`: the concentration for half-maximal inhibition (IC50) in assay [12] came to 2950 nM; in assay [13] it was 17 µM.
For `O=C(NNc1nc2ccccc2nc1Cc1ccccc1)c1ccc(O)cc1`, the concentration for half-maximal inhibition (IC50) in [7] stood at 17 nM.
For `Cc1c(/N=C/c2ccc([N+](=O)[O-])cc2)c(=O)n(-c2ccccc2)n1C`, the half-inhibitory concentration (IC50) in assay [14] came to 49 nM.
In turn, `CCCCNc1nnc(SCC(=O)Nc2nc3ccc([N+](=O)[O-])cc3s2)s1` gave an IC50 in assay [15] of 128 nM.
With `O=C1Oc2ccccc2C(=O)/C1=C\NCc1ccccc1`, the half-maximal inhibitory concentration (IC50) in [16] was 638 nM.
In turn, `OCC/N=C/c1cn(-c2ccccc2)nc1-c1ccc(Cl)cc1` showed a 50% inhibitory concentration (IC50) in assay [4] of 600 nM.
For the compound `Cc1cc(=O)c(O)c(CO)n1CCCn1cc(COc2cc3ccccc3oc2=O)nn1`, the IC50 was determined as 5 nM in assay [17] and 680 nM in assay [18].
Compound `Cc1ccc2oc(=O)c(-c3cccc(N)c3)cc2c1` showed a half-inhibitory concentration (IC50) in assay [19] of 60 nM.
With `Oc1cc(Cl)ccc1NC(=S)Nc1ccc2[nH]ccc2c1`, the IC50 in assay [16] was found to be 638 nM.
With `Cc1ccc(/C=N/NC(=O)c2cc(-c3ccccc3)on2)cc1`, the Ki in assay [20] amounted to 850 nM. In [17], this compound registered an IC50 of 5 nM.
For `O=C(c1ccccc1)N1CCN(C(c2ccccc2)c2ccccc2)CC1`, the IC50 in [21] was found to be 80 nM.
`C/C(=N\NC(=O)Nc1ncc([N+](=O)[O-])s1)c1ccc(Br)cc1` yielded an IC50 in assay [22] of 212 nM.
For the compound `O=c1oc2cc(Br)ccc2cc1-c1ccc(Br)nn1`, the IC50 in assay [19] turned out to be 60 nM.
Consider `COc1ccc(C2CC(c3ccccc3)=NN2C(=O)Cn2c(=O)oc3ccccc32)cc1OC` (stereo unspecified), for which, in assay [20], the inhibition constant (Ki) was 850 nM.
